Test results as given in patent publication US20240358693A1, “METHODS OF TREATING PAIN” (Aisa Pharma, Inc., priority 2023, published 2024).

System: participants with SSc-RP
Assay: Scleroderma Health Assessment Questionnaire (SHAQ): disability indices and visual analog scales
Assay type: in vivo, human
Settings: for SHAQ Alternative Disability Index, Mean / SHAQ Alternative Disability Index, Median / SHAQ Standard Disability Index, Mean / SHAQ Standard Disability Index, Median: Patients with Diagnosis of SSc
Outline: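 Participants with SSc-RP completed the SHAQ at screening and each in-clinic visit. Standard and alternative disability indices (eight categories, 0–3; standard adjusts for aids/assistance) plus Raynaud's VAS on interference over the past 7 days. Reported as absolute change from baseline to end of each dosing period.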

[1] = Day 12, Pooled Cilnidipine 20 mg and Cilnidipine 20 mg + Tadalafil 5 mg (N = 8), PP Population Part A
[2] = Day 12, Pooled Cilnidipine (N = 8), PP Population Part A
[3] = Day 12, mITT Part A, SSc patients, cilnidipine 10 mg and/or tadalafil 5 mg as in the arm
[4] = Day 12, mITT Part A, SSc patients, cilnidipine 10 mg and/or tadalafil 5 mg as in the arm, subject 01-110 score excluded
[5] = Day 12, mITT Part A, SSc patients, cilnidipine 20 mg (+ tadalafil 5 mg in the combination arm)
[6] = In-Clinic Visit (Day 12), Cilnidipine 10 mg (N = 4), PP Population Part A
[7] = In-Clinic Visit (Day 12), Cilnidipine 20 mg (N = 4), PP Population Part A
[8] = In-Clinic Visit (Day 12), Pooled Cilnidipine 10 mg and Cilnidipine 10 mg + Tadalafil 5 mg (N = 9), PP Population Part A

COCCOC(=O)C1=C(C)NC(C)=C(C(=O)OC/C=C/c2ccccc2)C1c1cccc([N+](=O)[O-])c1 (stereo not drawn) [Cilnidipine, cilnidipine]
SHAQ Visual Analogue Scale - Pain, Change from Baseline, Median [1]: −0.500
SHAQ Visual Analogue Scale - Pain, Percent Change from Baseline, Mean [1]: −25.85%
SHAQ Visual Analogue Scale - Pain, Percent Change from Baseline, Median [1]: −48.78%
SHAQ Visual Analogue Scale - Raynaud's, Change from Baseline, Mean [1]: −1.013
SHAQ Visual Analogue Scale - Raynaud's, Change from Baseline, Median [1]: −0.650
SHAQ Visual Analogue Scale - Raynaud's, Percent Change from Baseline, Mean [1]: −32.40%
SHAQ Visual Analogue Scale - Raynaud's, Percent Change from Baseline, Median [1]: −37.35%
SHAQ Visual Analogue Scale - Breathing Problems, Change from Baseline, Mean [2]: −0.388
SHAQ Visual Analogue Scale - Breathing Problems, Change from Baseline, Median [2]: 0.000
SHAQ Visual Analogue Scale - Breathing Problems, Percent Change from Baseline, Mean [2]: −0.22%
SHAQ Visual Analogue Scale - Breathing Problems, Percent Change from Baseline, Median [2]: −16.00%
SHAQ Visual Analogue Scale - Finger Ulcers, Change from Baseline, Mean [2]: −0.643
SHAQ Visual Analogue Scale - Finger Ulcers, Change from Baseline, Median [2]: 0.000
SHAQ Visual Analogue Scale - Finger Ulcers, Percent Change from Baseline, Mean [2]: −17.08%
SHAQ Visual Analogue Scale - Finger Ulcers, Percent Change from Baseline, Median [2]: −50.82%
SHAQ Visual Analogue Scale - Intestinal Problems, Change from Baseline, Mean [2]: −0.863
SHAQ Visual Analogue Scale - Intestinal Problems, Change from Baseline, Median [2]: −0.050
SHAQ Visual Analogue Scale - Intestinal Problems, Percent Change from Baseline, Mean [2]: −43.69%
SHAQ Visual Analogue Scale - Intestinal Problems, Percent Change from Baseline, Median [2]: −66.06%
SHAQ Visual Analogue Scale - Overall Disease Severity, Change from Baseline, Mean [2]: −1.450
SHAQ Visual Analogue Scale - Overall Disease Severity, Change from Baseline, Median [2]: −1.550
SHAQ Visual Analogue Scale - Overall Disease Severity, Percent Change from Baseline, Mean [2]: −61.10%
SHAQ Visual Analogue Scale - Overall Disease Severity, Percent Change from Baseline, Median [2]: −60.00%
SHAQ Visual Analogue Scale - Pain, Change from Baseline, Mean [2]: −0.375
SHAQ Visual Analogue Scale - Pain, Change from Baseline, Median [2]: −0.250
SHAQ Visual Analogue Scale - Pain, Percent Change from Baseline, Mean [2]: −23.98%
SHAQ Visual Analogue Scale - Pain, Percent Change from Baseline, Median [2]: −41.18%
SHAQ Visual Analogue Scale - Raynaud's, Change from Baseline, Mean [2]: −0.438
SHAQ Visual Analogue Scale - Raynaud's, Change from Baseline, Median [2]: −0.600
SHAQ Visual Analogue Scale - Raynaud's, Percent Change from Baseline, Mean [2]: −18.62%
SHAQ Visual Analogue Scale - Raynaud's, Percent Change from Baseline, Median [2]: −33.33%
SHAQ Alternative Disability Index, Change from Baseline, Mean [3]: 0.083
SHAQ Alternative Disability Index, Change from Baseline, Median [3]: 0.000
SHAQ Alternative Disability Index, In-Clinic Visit (Day 12), Mean [3]: 0.750
SHAQ Alternative Disability Index, In-Clinic Visit (Day 12), Median [3]: 1.000
SHAQ Alternative Disability Index, Percent Change from Baseline, Mean [3]: 15.87%
SHAQ Alternative Disability Index, Percent Change from Baseline, Median [3]: 15.87%
SHAQ Visual Analogue Scale - Finger Ulcers, Change from Baseline, Mean [3]: −0.567
SHAQ Visual Analogue Scale - Finger Ulcers, Change from Baseline, Median [3]: −0.700
SHAQ Visual Analogue Scale - Finger Ulcers, In-Clinic Visit (Day 12), Mean [3]: 0.367
SHAQ Visual Analogue Scale - Finger Ulcers, In-Clinic Visit (Day 12), Median [3]: 0.000
SHAQ Visual Analogue Scale - Finger Ulcers, Percent Change from Baseline, Mean [3]: −69.44%
SHAQ Visual Analogue Scale - Finger Ulcers, Percent Change from Baseline, Median [3]: −69.44%
SHAQ Visual Analogue Scale - Intestinal Problems, Change from Baseline, Mean [3]: −2.467
SHAQ Visual Analogue Scale - Intestinal Problems, Change from Baseline, Median [3]: −3.000
SHAQ Visual Analogue Scale - Intestinal Problems, In-Clinic Visit (Day 12), Mean [3]: 1.467
SHAQ Visual Analogue Scale - Intestinal Problems, In-Clinic Visit (Day 12), Median [3]: 0.600
SHAQ Visual Analogue Scale - Intestinal Problems, Percent Change from Baseline, Mean [3]: −66.06%
SHAQ Visual Analogue Scale - Intestinal Problems, Percent Change from Baseline, Median [3]: −66.06%
SHAQ Visual Analogue Scale - Overall Disease Severity, Change from Baseline, Mean [3]: −1.067
SHAQ Visual Analogue Scale - Overall Disease Severity, Change from Baseline, Median [3]: −1.500
SHAQ Visual Analogue Scale - Overall Disease Severity, In-Clinic Visit (Day 12), Mean [3]: 2.433
SHAQ Visual Analogue Scale - Overall Disease Severity, In-Clinic Visit (Day 12), Median [3]: 1.900
SHAQ Visual Analogue Scale - Overall Disease Severity, Percent Change from Baseline, Mean [3]: −35.44%
SHAQ Visual Analogue Scale - Overall Disease Severity, Percent Change from Baseline, Median [3]: −35.44%
SHAQ Visual Analogue Scale - Pain, Change from Baseline, Mean [3]: 0.100
SHAQ Visual Analogue Scale - Pain, Change from Baseline, Median [3]: 0.000
SHAQ Visual Analogue Scale - Pain, In-Clinic Visit (Day 12), Mean [3]: 2.167
SHAQ Visual Analogue Scale - Pain, In-Clinic Visit (Day 12), Median [3]: 2.900
SHAQ Visual Analogue Scale - Pain, Percent Change from Baseline, Mean [3]: 5.77%
SHAQ Visual Analogue Scale - Pain, Percent Change from Baseline, Median [3]: 5.77%
SHAQ Visual Analogue Scale - Raynaud's, Change from Baseline, Mean [3]: 0.167
SHAQ Visual Analogue Scale - Raynaud's, Change from Baseline, Median [3]: −0.100
SHAQ Visual Analogue Scale - Raynaud's, In-Clinic Visit (Day 12), Mean [3]: 2.300
SHAQ Visual Analogue Scale - Raynaud's, In-Clinic Visit (Day 12), Median [3]: 2.600
SHAQ Visual Analogue Scale - Raynaud's, Percent Change from Baseline, Mean [3]: 11.36%
SHAQ Visual Analogue Scale - Raynaud's, Percent Change from Baseline, Median [3]: −2.27%
SHAQ Visual Analogue Scale - Breathing Problems, Change from Baseline, Mean [4]: −0.400
SHAQ Visual Analogue Scale - Breathing Problems, Change from Baseline, Median [4]: 0.000
SHAQ Visual Analogue Scale - Breathing Problems, In-Clinic Visit (Day 12), Mean [4]: 2.100
SHAQ Visual Analogue Scale - Breathing Problems, In-Clinic Visit (Day 12), Median [4]: 0.000
SHAQ Visual Analogue Scale - Breathing Problems, Percent Change from Baseline, Mean [4]: −16.00%
SHAQ Visual Analogue Scale - Breathing Problems, Percent Change from Baseline, Median [4]: −16.00%
SHAQ Alternative Disability Index, Change from Baseline, Mean [5]: −0.083
SHAQ Alternative Disability Index, Change from Baseline, Median [5]: −0.125
SHAQ Alternative Disability Index, In-Clinic Visit (Day 12), Mean [5]: 0.125
SHAQ Alternative Disability Index, In-Clinic Visit (Day 12), Median [5]: 0.125
SHAQ Alternative Disability Index, Percent Change from Baseline, Mean [5]: −41.67%
SHAQ Alternative Disability Index, Percent Change from Baseline, Median [5]: −41.67%
SHAQ Visual Analogue Scale - Breathing Problems, Change from Baseline, Mean [5]: −0.833
SHAQ Visual Analogue Scale - Breathing Problems, Change from Baseline, Median [5]: −0.800
SHAQ Visual Analogue Scale - Breathing Problems, In-Clinic Visit (Day 12), Mean [5]: 0.300
SHAQ Visual Analogue Scale - Breathing Problems, In-Clinic Visit (Day 12), Median [5]: 0.400
SHAQ Visual Analogue Scale - Breathing Problems, Percent Change from Baseline, Mean [5]: −5.56%
SHAQ Visual Analogue Scale - Breathing Problems, Percent Change from Baseline, Median [5]: −66.67%
SHAQ Visual Analogue Scale - Finger Ulcers, Change from Baseline, Mean [5]: −0.933
SHAQ Visual Analogue Scale - Finger Ulcers, Change from Baseline, Median [5]: 0.000
SHAQ Visual Analogue Scale - Finger Ulcers, In-Clinic Visit (Day 12), Mean [5]: 0.867
SHAQ Visual Analogue Scale - Finger Ulcers, In-Clinic Visit (Day 12), Median [5]: 0.700
SHAQ Visual Analogue Scale - Finger Ulcers, Percent Change from Baseline, Mean [5]: 35.29%
SHAQ Visual Analogue Scale - Finger Ulcers, Percent Change from Baseline, Median [5]: 35.29%
SHAQ Visual Analogue Scale - Intestinal Problems, Change from Baseline, Mean [5]: 0.300
SHAQ Visual Analogue Scale - Intestinal Problems, Change from Baseline, Median [5]: 0.300
SHAQ Visual Analogue Scale - Intestinal Problems, In-Clinic Visit (Day 12), Median [5]: 1.300
SHAQ Visual Analogue Scale - Intestinal Problems, Percent Change from Baseline, Mean [5]: 35.00%
SHAQ Visual Analogue Scale - Intestinal Problems, Percent Change from Baseline, Median [5]: 35.00%
SHAQ Visual Analogue Scale - Overall Disease Severity, Change from Baseline, Median [5]: −1.600
SHAQ Visual Analogue Scale - Overall Disease Severity, In-Clinic Visit (Day 12), Mean [5]: 1.033
SHAQ Visual Analogue Scale - Overall Disease Severity, In-Clinic Visit (Day 12), Median [5]: 1.200
SHAQ Visual Analogue Scale - Overall Disease Severity, Percent Change from Baseline, Median [5]: −60.00%
SHAQ Visual Analogue Scale - Pain, Change from Baseline, Mean [5]: −1.100
SHAQ Visual Analogue Scale - Pain, Change from Baseline, Median [5]: −0.800
SHAQ Visual Analogue Scale - Pain, In-Clinic Visit (Day 12), Mean [5]: 1.067
SHAQ Visual Analogue Scale - Pain, In-Clinic Visit (Day 12), Median [5]: 0.700
SHAQ Visual Analogue Scale - Pain, Percent Change from Baseline, Mean [5]: −52.56%
SHAQ Visual Analogue Scale - Pain, Percent Change from Baseline, Median [5]: −53.33%
SHAQ Visual Analogue Scale - Raynaud's, Change from Baseline, Median [5]: −1.100
SHAQ Visual Analogue Scale - Raynaud's, In-Clinic Visit (Day 12), Mean [5]: 1.033
SHAQ Visual Analogue Scale - Raynaud's, In-Clinic Visit (Day 12), Median [5]: 1.100
SHAQ Visual Analogue Scale - Raynaud's, Percent Change from Baseline, Median [5]: −44.00%
SHAQ Alternative Disability Index, Mean [6]: 0.563
SHAQ Alternative Disability Index, Median [6]: 0.500
SHAQ Standard Disability Index, Mean [6]: 0.656
SHAQ Standard Disability Index, Median [6]: 0.563
SHAQ Alternative Disability Index, Mean [7]: 0.219
SHAQ Alternative Disability Index, Median [7]: 0.188
SHAQ Standard Disability Index, Mean [7]: 0.281
SHAQ Standard Disability Index, Median [7]: 0.188
SHAQ Visual Analogue Scale - Finger Ulcers, Mean [8]: 0.389
SHAQ Visual Analogue Scale - Finger Ulcers, Median [8]: 0.000
SHAQ Visual Analogue Scale - Intestinal Problems, Mean [8]: 1.217
SHAQ Visual Analogue Scale - Intestinal Problems, Median [8]: 0.700
SHAQ Visual Analogue Scale - Overall Disease Severity, Mean [8]: 2.439
